Measured values reported in US20190226949A1, “IRIDIUM COMPLEXES FOR CELLULAR IMAGING” (UNIVERSITY OF SOUTH AUSTRALIA, priority 2016, published 2019).
“And” between values parts separate entries of the source, which are not always exact repeats. Equal entries are not always repeated.

How the values were obtained:
[1] = test system: H9c2 rat cardiomyoblast cells; experiment: Staining and co-staining of live H9c2 cells, confocal and two-photon microscopy; assay type: cell-based
Procedure: Live H9c2 rat cardiomyoblasts were incubated with the iridium complexes for 30 minutes. Complexes were made to a final concentration of 20 μM in the cell culture medium with DMSO concentration <0.2%. Under these conditions, the luminescence from the iridium complexes within the cells was detected via confocal microscopy under single-photon excitation (403 nm) or two-photon excitation (810-840 nm).
To determine the localisation of the iridium complexes, co-staining experiments were carried out with the use of ER-Tracker™ Red (endoplasmic reticulum), LysoTracker® Red DND-99 (acidic compartments), MitoTracker® Red (mitochondria), BODIPY® 500/510 C1, C12(fatty acid) or β-BODIPY® FL HPC (phospholipids). […] This difference was also in agreement with the trend of the quantum yield data illustrated before and detection of internalised complex by ICP-MS.
H9c2 rat cardiomyoblast cell line was a kind gift from Professor Janna Morrison (University of South Australia). The H9c2 cells were maintained in high-glucose (4500 mg/L) DMEM medium (Sigma-Aldrich, USA) containing 10% fetal bovine serum (FBS; In Vitro Technologies, USA) and 2 mM L-glutamine (Sigma-Aldrich, USA) at 37° C. and 5% CO2. The H9c2 cells were cultured in […] flasks, and cells (1×10^6 cells/mL) that had been passaged, from two up to five times were used for experiments. For live cell imaging and MTS assay, the H9c2 cells (1×10^5 cells/mL) were cultured overnight in either ibidi μ-Slide 8 wells in a final volume of 250 μL or 96-well microtiter plate in a final volume of 200 μL in absence of Ir-based molecular probes.
The H9c2 cells were incubated with 20 μM of Ir-based molecular probes for 30 minutes in FBS-free media (300 μL) at 37° C. and 5% CO2. These cells were washed twice with phosphate buffered saline (PBS) and once with FBS-free media, and then co-stained with either ER-Tracker™ Red (BODIPY® TR Glibenclamide), LysoTracker® Red DND-99, MitoTracker® Red CMXRos (1H,5H,11H,15H-Xantheno[2,3,4-ij:5,6,7-i′j′]diquinolizin-18-ium, 9-[4-(chloromethyl)phenyl]-2,3,6,7,12,13,16,17-octahydro-, chloride), β-BODIPY® FL C5-HPC (2-(4,4-Difluoro-5,7-Dimethyl-4-Bora-3a,4a-Diaza-s-Indacene-3-Pentanoyl)-1-Hexadecanoyl-sn-Glycero-3-Phosphocholine) or BODIPY® 500/510 C1, C12 (4,4-Difluoro-5-Methyl-4-Bora-3a,4a-Diaza-s-Indacene-3-Dodecanoic Acid), which were obtained from Life Technologies Australia Pty Ltd, Australia. Cell biology analysis was carried out with a minimum of two experimental groups. Imaging analysis was performed using a Nikon A1+ confocal microscope equipped with 403 nm, 488 nm, 561 nm and 640 nm solid-state lasers (Nikon, Japan) and OKOLab Microscope Incubator (Okolab USA Inc., USA). The final preparation of the images was conducted with Adobe Photoshop CC (Adobe Systems Inc., USA).
The H9c2 cells were incubated with 20 μM of Ir-based molecular probes for 30 minutes in FBS-free media (300 μL) at 37° C. and 5% CO2. These cells then were washed with phosphate buffered saline (PBS) and imaged using Zeiss LSM710 META NLO inverted microscope supplemented with a two-photon Mai-Tai®, tunable Ti:Sapphire femtosecond pulse laser (710-920 nm, Spectra-Physics). Fluorescence of Ir-based molecular probes was detected using the following settings: two-photon excitation wavelength 830 nm, beam splitter MBS 690+, emission interval 520-650 nm. The H9c2 cells were exposed to two-photon illumination between 810-840 nm. A continuum of lambda stack images was captured across the emission spectrum 416-728 nm. The images were acquired using a Plan-APOCHROMAT 63X/NA1.4 oil immersion objective. The final preparation of the images was conducted with Adobe Photoshop CC (Adobe Systems Inc., USA).

[2] = Lipophilicity by shake-flask method (7.4-buffered PBS / n-octanol); assay type: physicochemical; conditions: pH 7.4; 7.4-buffered PBS solution and n-octanol; read-out: logD7.4, distribution coefficient
Procedure: The lipophilicity of the iridium complexes was measured by the shake-flask method using 7.4-buffered PBS and n-octanol as solvents (Table 2). The values range between 1.49 and 2.68 are typical for cyclometalated iridium complexes that have not been bioconjugated. […] In general, neutral complexes have log D7.4 values above 2.00 and there is an increased in lipophilicity of extending the tetrazolato ligand with the addition of a phenyl spacer in [Ir(ppy)2(TzPyPhCN)], or by extending the conjugation on passing from pyridine to quinoline or isoquinoline for [Ir(ppy)2(TzQn)] and [Ir(ppy)2(TziQn)]. Methylation in all cases reduces lipophilicity to log D7.4 values […], with the same trend within the family of methylated complexes as previously observed for the neutral ones.

[3] = Photophysical measurements (absorption, emission, lifetime, quantum yield) in diluted solutions; assay type: physicochemical
Excerpt: A summary of the photophysical data for the complexes as diluted solutions (10^−5 M) in dichloromethane, water, PBS, lysosomal fluid solution, and ethyl laurate is reported in Table 1. All the listed aqueous media also contain 0.1% DMSO to favour the solubilisation of the complexes. The various solvents have been chosen to identify potential modulations on the photophysical behaviour of the iridium complexes in diverse cellular environments such as cytoplasm, endosome/lysosomes acidic organelles, or lipid-rich compartments like membranes, endoplasmic reticulum, and lipid droplets. In general, the photophysical characteristics were measured in aerated solutions to take into account the presence of oxygen in live cells. On the other hand, dichloromethane solutions were compared as aerated and degassed to confirm oxygen sensitivity and triplet character of the excited states of the complexes.
Absorption spectra were recorded at room temperature using a Cary 4000 UV/Vis spectrometer. Uncorrected steady state emission and excitation spectra were recorded on an Edinburgh FLSP980-S2S2-stm spectrometer equipped with: i) a temperature-monitored cuvette holder; ii) 450 W Xenon arc lamp; iii) double excitation and emission monochromators; iv) a Peltier cooled Hamamatsu R928P photomultiplier tube (spectral range 200-870 nm). Emission and excitation spectra were corrected for source intensity (lamp and grating) and emission spectral response (detector and grating) by a calibration curve supplied with the instrument. According to the approach described by Demas and Crosby, luminescence quantum yields (Φem) were measured in optically dilute solutions (O.D.<0.1 at excitation wavelength) obtained from absorption spectra on a wavelength scale [nm] and compared to the reference emitter by the following equation: […]
where A is the absorbance at the excitation wavelength (λ), I is the intensity of the excitation light at the excitation wavelength (λ), n is the refractive index of the solvent, D is the integrated intensity of the luminescence and Φ is the quantum yield. The subscripts r and x refer to the reference and the sample, respectively. The quantum yield determinations were performed at identical excitation wavelength for the sample and the reference, therefore cancelling the I(λr)/I(λx) term in the equation. The quantum yields of complexes were measured against Rubipy in water (Φr=0.028). Emission lifetimes (z) were determined with the time correlated single photon counting technique (TCSPC) with the same Edinburgh FLSP980-S2S2-stm spectrometer using either a pulsed picosecond LED (EPLED/EPL 377 nm, FHWM<800 ps) or a microsecond flashlamp. The goodness of fit was assessed by minimising the reduced χ^2 function and by visual inspection of the weighted residuals. The solvents used for the preparation of the solutions for the photophysical investigations were of LR grade and the water was deionised. Degassing of the dichlorometane solutions was performed using the freeze-pump-thaw method. Experimental uncertainties are estimated to be ±8% for lifetime determinations, ±20% for quantum yields, ±2 nm and ±5 nm for absorption and emission peaks, respectively.

C[n+]1nc2[n](n1)[Ir]13([c]4ccccc4-c4cccc[n+]41)([c]1ccccc1-c1cccc[n+]13)[n+]1ccc3ccccc3c1-2 [[Ir(ppy)2(MeTziQn)]^+]
cellular localisation (co-staining) ([1]; live H9c2, 20 μM, 30 minutes): preferential localisation in the endoplasmic reticulum and fatty acids and phospholipids
emission profile from cells ([1]; live H9c2, one-photon or two-photon excitation): red-shifted consistently with the photophysical data
logD [2]: 1.49 ± 0.06
Absorption λabs [nm] (10^4ε [M^−1cm^−1]) ([3]; DCM, 10^−5 M): 253 (6.96) nm (10^4ε [M^−1cm^−1]) and 303 (2.45) nm (10^4ε [M^−1cm^−1]) and 371 (1.24) nm (10^4ε [M^−1cm^−1])
Emission λem ([3]; DCM, 298K, 10^−5 M): 640 nm
τaer, excited state lifetime (relative weight in parentheses) ([3]; DCM, aerated, 298K): 208 ns
Φaer, quantum yield ([3]; DCM, aerated, versus Ru(bpy)3^2+ in water (φr = 0.028)): 0.049
τdeaer, excited state lifetime (relative weight in parentheses) ([3]; DCM, deaerated, 298K): 485 ns
Φdeaer, quantum yield ([3]; DCM, deaerated, versus Ru(bpy)3^2+ in water (φr = 0.028)): 0.063
knr ([3]; DCM, calculated as [(1 − φ)/τ] from deaerated solutions): 1.932 10^6s^−1
kr ([3]; DCM, calculated as [φ/τ] from deaerated solutions): 1.299 10^5s^−1
Absorption λabs [nm] (10^4ε [M^−1cm^−1]) ([3]; H2O with 0.1% DMSO, 10^−5 M): 251 (6.64) nm (10^4ε [M^−1cm^−1]) and 291 (2.60) nm (10^4ε [M^−1cm^−1]) and 355 (1.36) nm (10^4ε [M^−1cm^−1])
Emission λem ([3]; H2O with 0.1% DMSO, 298K, aerated): 660 nm
Φ, quantum yield ([3]; H2O with 0.1% DMSO, aerated, versus Ru(bpy)3^2+ in water): 0.004
red-shift of emission from ethyl laurate to dichloromethane ([3]; ethyl laurate vs dichloromethane): almost no shift is observed
